In PubChem BioAssay (NCI):
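Five concentrations, 48 hours, 96-well plates. The concentration for 50% growth inhibition is given as GI50. TGI is the concentration that stops growth completely.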

Assays:
Experiment in all cases: NCI anticancer screen, dose series, 48 h
SW-620 colon = system: SW-620 colon
SK-MEL-5 melanoma = system: SK-MEL-5 melanoma
SNB-19 CNS = system: SNB-19 CNS
NCI-H226 lung = system: NCI-H226 lung
DU-145 prostate = system: DU-145 prostate
SK-MEL-28 melanoma = system: SK-MEL-28 melanoma
T-47D breast = system: T-47D breast
OVCAR-4 ovarian = system: OVCAR-4 ovarian
MDA-MB-231 breast = system: MDA-MB-231 breast
SN12C renal = system: SN12C renal
MALME-3M melanoma = system: MALME-3M melanoma
RPMI-8226 leukemia = system: RPMI-8226 leukemia
SR leukemia = system: SR leukemia
U251 CNS = system: U251 CNS
SF-268 CNS = system: SF-268 CNS
RXF 393 renal = system: RXF 393 renal
SF-295 CNS = system: SF-295 CNS
SK-MEL-2 melanoma = system: SK-MEL-2 melanoma
UO-31 renal = system: UO-31 renal
BT-549 breast = system: BT-549 breast
A549 NSCLC = system: A549 NSCLC
MCF7 breast = system: MCF7 breast
SNB-75 CNS = system: SNB-75 CNS
HL-60(TB) leukemia = system: HL-60(TB) leukemia
M14 melanoma = system: M14 melanoma
OVCAR-8 ovarian = system: OVCAR-8 ovarian
K-562 leukemia = system: K-562 leukemia
CAKI-1 renal = system: CAKI-1 renal
HS 578T breast = system: HS 578T breast
NCI-H23 lung = system: NCI-H23 lung
COLO 205 colon = system: COLO 205 colon
CCRF-CEM leukemia = system: CCRF-CEM leukemia
LOX IMVI melanoma = system: LOX IMVI melanoma
UACC-257 melanoma = system: UACC-257 melanoma
SK-OV-3 ovarian = system: SK-OV-3 ovarian
ACHN renal = system: ACHN renal
HCC-2998 colon = system: HCC-2998 colon
UACC-62 melanoma = system: UACC-62 melanoma
NCI/ADR-RES ovarian = system: NCI/ADR-RES ovarian
MOLT-4 leukemia = system: MOLT-4 leukemia
KM12 colon = system: KM12 colon
IGROV1 ovarian = system: IGROV1 ovarian
HCT-116 colon = system: HCT-116 colon
MDA-MB-468 breast = system: MDA-MB-468 breast
EKVX NSCLC = system: EKVX NSCLC
OVCAR-3 ovarian = system: OVCAR-3 ovarian
MDA-MB-435 = system: MDA-MB-435
786-0 renal = system: 786-0 renal
PC-3 prostate = system: PC-3 prostate
HOP-92 NSCLC = system: HOP-92 NSCLC
HOP-62 NSCLC = system: HOP-62 NSCLC
A498 renal = system: A498 renal
SF-539 CNS = system: SF-539 CNS
NCI-H460 lung = system: NCI-H460 lung
NCI-H522 lung = system: NCI-H522 lung
OVCAR-5 ovarian = system: OVCAR-5 ovarian
HCT-15 colon = system: HCT-15 colon
TK-10 renal = system: TK-10 renal
HT29 colon = system: HT29 colon

Cc1ccc(C(=O)C(c2c[nH]c3ccccc23)c2c[nH]c3ccccc23)cc1
GI50 (SW-620 colon): 3.55 µM | TGI (SW-620 colon): 13.5 µM | GI50 (SK-MEL-5 melanoma): 15.5 µM | TGI (SK-MEL-5 melanoma): 29.2 µM | GI50 (SNB-19 CNS): 16.9 µM | TGI (SNB-19 CNS): 31.4 µM | GI50 (NCI-H226 lung): 13.8 µM | TGI (NCI-H226 lung): 29.4 µM | GI50 (DU-145 prostate): 14.4 µM | TGI (DU-145 prostate): 27.8 µM | GI50 (SK-MEL-28 melanoma): 14.5 µM | TGI (SK-MEL-28 melanoma): 28.1 µM | GI50 (T-47D breast): 9.57 µM | TGI (T-47D breast): 28.4 µM | GI50 (OVCAR-4 ovarian): 13.2 µM | TGI (OVCAR-4 ovarian): 28.2 µM | GI50 (MDA-MB-231 breast): 14.1 µM | TGI (MDA-MB-231 breast): 31 µM | GI50 (SN12C renal): 11.1 µM | TGI (SN12C renal): 24.2 µM | GI50 (MALME-3M melanoma): 16 µM | TGI (MALME-3M melanoma): 31.2 µM | GI50 (RPMI-8226 leukemia): 8.31 µM | TGI (RPMI-8226 leukemia): > 100 µM | GI50 (SR leukemia): 11 µM | TGI (SR leukemia): 77.6 µM | GI50 (U251 CNS): 15.9 µM | TGI (U251 CNS): 30.9 µM | GI50 (SF-268 CNS): 10.6 µM | TGI (SF-268 CNS): 25.4 µM | GI50 (RXF 393 renal): 12.5 µM | TGI (RXF 393 renal): 29.6 µM | GI50 (SF-295 CNS): 14.8 µM | TGI (SF-295 CNS): 28.1 µM | GI50 (SK-MEL-2 melanoma): 14.5 µM | TGI (SK-MEL-2 melanoma): 28.7 µM | GI50 (UO-31 renal): 11.3 µM | TGI (UO-31 renal): 23.4 µM | GI50 (BT-549 breast): 12.8 µM | TGI (BT-549 breast): 26.5 µM | GI50 (A549 NSCLC): 15 µM | TGI (A549 NSCLC): 33.1 µM | GI50 (MCF7 breast): 3.77 µM | TGI (MCF7 breast): 15.7 µM | GI50 (SNB-75 CNS): 7.91 µM | TGI (SNB-75 CNS): 21 µM | GI50 (HL-60(TB) leukemia): 6.82 µM | TGI (HL-60(TB) leukemia): 38.2 µM | GI50 (M14 melanoma): 12.6 µM | TGI (M14 melanoma): 29.1 µM | GI50 (OVCAR-8 ovarian): 16.7 µM | TGI (OVCAR-8 ovarian): 34.1 µM | GI50 (K-562 leukemia): 3.88 µM | TGI (K-562 leukemia): > 100 µM | GI50 (CAKI-1 renal): 9.39 µM | TGI (CAKI-1 renal): 21.4 µM | GI50 (HS 578T breast): 16.6 µM | TGI (HS 578T breast): 47.1 µM | GI50 (NCI-H23 lung): 11.5 µM | TGI (NCI-H23 lung): 25.9 µM | GI50 (COLO 205 colon): 17.1 µM | TGI (COLO 205 colon): 33 µM | GI50 (CCRF-CEM leukemia): 3.02 µM | TGI (CCRF-CEM leukemia): > 100 µM | GI50 (LOX IMVI melanoma): 3.21 µM | TGI (LOX IMVI melanoma): 13.8 µM | GI50 (UACC-257 melanoma): 13.2 µM | TGI (UACC-257 melanoma): 26.8 µM | GI50 (SK-OV-3 ovarian): 15.9 µM | TGI (SK-OV-3 ovarian): 33 µM | GI50 (ACHN renal): 10.9 µM | TGI (ACHN renal): 22.8 µM | GI50 (HCC-2998 colon): 13.7 µM | TGI (HCC-2998 colon): 27 µM | GI50 (UACC-62 melanoma): 13.9 µM | TGI (UACC-62 melanoma): 27.9 µM | GI50 (NCI/ADR-RES ovarian): 13.1 µM | TGI (NCI/ADR-RES ovarian): 32.2 µM | GI50 (MOLT-4 leukemia): 3.95 µM | TGI (MOLT-4 leukemia): 80.4 µM | GI50 (KM12 colon): 16.7 µM | TGI (KM12 colon): 31.1 µM | GI50 (IGROV1 ovarian): 11.7 µM | TGI (IGROV1 ovarian): 26.5 µM | GI50 (HCT-116 colon): 3.76 µM | TGI (HCT-116 colon): 15.2 µM | GI50 (MDA-MB-468 breast): 14.1 µM | TGI (MDA-MB-468 breast): 29 µM | GI50 (EKVX NSCLC): 13.7 µM | TGI (EKVX NSCLC): 27 µM | GI50 (OVCAR-3 ovarian): 11.3 µM | TGI (OVCAR-3 ovarian): 23.6 µM | GI50 (MDA-MB-435): 15.1 µM | TGI (MDA-MB-435): 29.7 µM | GI50 (786-0 renal): 12.9 µM | TGI (786-0 renal): 29.1 µM | GI50 (PC-3 prostate): 6.96 µM | TGI (PC-3 prostate): 28.3 µM | GI50 (HOP-92 NSCLC): 16.3 µM | TGI (HOP-92 NSCLC): 33.3 µM | GI50 (HOP-62 NSCLC): 18 µM | TGI (HOP-62 NSCLC): 42.1 µM | GI50 (A498 renal): 20.5 µM | TGI (A498 renal): 35.9 µM | GI50 (SF-539 CNS): 15.2 µM | TGI (SF-539 CNS): 29 µM | GI50 (NCI-H460 lung): 11.2 µM | TGI (NCI-H460 lung): 28.7 µM | GI50 (NCI-H522 lung): 10.7 µM | TGI (NCI-H522 lung): 24.1 µM | GI50 (OVCAR-5 ovarian): 14.7 µM | TGI (OVCAR-5 ovarian): 29 µM | GI50 (HCT-15 colon): 4.73 µM | TGI (HCT-15 colon): 17.6 µM | GI50 (TK-10 renal): 24.8 µM | TGI (TK-10 renal): 40.6 µM | GI50 (HT29 colon): 6.98 µM | TGI (HT29 colon): 22.1 µM
